Earlier results as cited in patent US20230321462A1, “Method for Improving Olfactory Sensitivity” (Kao Corporation, priority 2019, published 2023).

How the values were obtained:
Settings in all cases: Table 3; cited from earlier work
OR51D1 = target: T1, OR51D1 (Homo sapiens, UniProt Q8NGF3)
T1 sequence (Q8NGF3 1-324): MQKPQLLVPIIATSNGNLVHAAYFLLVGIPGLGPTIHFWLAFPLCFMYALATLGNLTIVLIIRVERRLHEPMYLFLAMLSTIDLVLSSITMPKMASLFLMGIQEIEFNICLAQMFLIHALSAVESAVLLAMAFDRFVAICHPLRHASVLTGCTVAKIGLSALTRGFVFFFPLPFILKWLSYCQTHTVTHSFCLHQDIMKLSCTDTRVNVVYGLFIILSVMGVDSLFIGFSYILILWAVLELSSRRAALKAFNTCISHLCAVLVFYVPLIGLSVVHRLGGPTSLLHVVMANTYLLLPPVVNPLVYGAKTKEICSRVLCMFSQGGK

OR5Al1 = target: T2, OR5Al1 (Homo sapiens, UniProt P0C617)
T2 sequence (P0C617 1-329): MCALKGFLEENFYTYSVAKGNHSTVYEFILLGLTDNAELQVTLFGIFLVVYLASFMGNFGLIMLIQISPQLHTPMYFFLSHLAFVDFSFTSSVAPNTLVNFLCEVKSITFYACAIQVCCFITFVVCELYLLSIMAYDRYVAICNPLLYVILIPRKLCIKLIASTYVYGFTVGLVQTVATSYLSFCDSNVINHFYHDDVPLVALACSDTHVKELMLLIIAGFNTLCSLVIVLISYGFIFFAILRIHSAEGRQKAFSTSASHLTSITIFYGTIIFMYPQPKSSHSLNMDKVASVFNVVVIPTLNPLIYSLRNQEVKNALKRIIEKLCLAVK

OR2T1 = target: T3, OR2T1 (Homo sapiens, UniProt O43869)
T3 sequence (O43869 1-369): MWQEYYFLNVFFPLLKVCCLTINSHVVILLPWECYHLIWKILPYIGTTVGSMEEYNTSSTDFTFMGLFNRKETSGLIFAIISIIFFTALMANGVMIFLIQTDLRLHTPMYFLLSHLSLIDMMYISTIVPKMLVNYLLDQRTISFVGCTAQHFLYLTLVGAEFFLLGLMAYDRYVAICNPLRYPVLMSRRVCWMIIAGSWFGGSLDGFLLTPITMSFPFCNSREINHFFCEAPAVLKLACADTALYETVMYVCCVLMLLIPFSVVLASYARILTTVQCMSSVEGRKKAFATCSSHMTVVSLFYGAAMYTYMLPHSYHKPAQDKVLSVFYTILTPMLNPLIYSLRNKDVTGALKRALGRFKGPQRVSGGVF

OR7G2 = target: T4, OR7G2 (Homo sapiens, UniProt Q8NG99)
T4 sequence (Q8NG99 1-324): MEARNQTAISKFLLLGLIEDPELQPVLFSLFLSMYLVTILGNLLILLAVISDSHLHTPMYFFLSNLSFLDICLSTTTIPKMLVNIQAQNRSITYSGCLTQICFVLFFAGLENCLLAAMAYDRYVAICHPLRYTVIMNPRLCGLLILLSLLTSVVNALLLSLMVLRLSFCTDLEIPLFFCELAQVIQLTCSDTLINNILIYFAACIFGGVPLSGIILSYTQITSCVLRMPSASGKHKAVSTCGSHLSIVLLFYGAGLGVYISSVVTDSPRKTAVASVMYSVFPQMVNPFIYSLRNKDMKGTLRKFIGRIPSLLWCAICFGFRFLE

CCCC(=O)O [Butyric acid]
recognized by: recognition by OR51D1 (OR51D1) | recognition by OR5Al1 (OR5Al1) | recognition by OR2T1 (OR2T1) | recognition by OR7G2 (OR7G2)
